In ChEMBL document CHEMBL1143330, “Preliminary investigations on the synthesis and antitumor activity of 3(2H)-furanones” (Bioorg Med Chem Lett, 2009):
Active and inactive are the calls of the source. The rule behind the calls is not given here.

What was measured:
DLA [1] = assay: Antitumor activity in mouse DLA cells xenografted Swiss albino mouse assessed as inhibition of tumor cell proliferation at 1 mg/kg, po administered after 7 days of tumor induction measured each 3 days upto 31 days; format: functional, organism-based; set-up: dose 1 mg/kg
DLA [2] = assay: Antiproliferative activity against mouse DLA cells assessed as radiolabeled thymidine incorporation at 10 to 200 ug after 24 hrs by liquid scintillation counter; format: functional, cell-based

Row | SMILES | Activity (DLA [1]) | Activity (DLA [2])
1 | COC1(c2ccccc2)OC(c2ccccc2)=C(c2ccccc2)C1=O (centres undefined) | Active | Active
2 | CC(=O)OC1(c2ccccc2)OC(c2ccccc2)=C(c2ccccc2)C1=O (centres undefined) | Active | Active
